From PMC10461225, “Creation of a Peptide Antagonist of the GFRAL–RET Receptor Complex for the Treatment of GDF15-Induced Malaise” (Journal of Medicinal Chemistry, 2023)
Square brackets hold non-standard residues; d marks the D form. Ends that are not written are not given here. Peptide text beside a SMILES is read from it. PEG2‑C4‑alkyne‑biotin = PEG2-C4-alkyne-modified biotin; Lys(N3) = [N-]=[N+]=NCCCC[C@H](N)C(=O)O; K‑azido = azido-modified lysine

Legend:
Sprague–Dawley rats = tested on: Sprague–Dawley rats
Protocol: In a follow-up experiment, we evaluated responses to the gold standard antiemetic Ondansetron alone or in combination with GRASP to determine whether the combination would enhance the efficacy of the former compound in preventing CINV in rats.
All systemic treatments were delivered by intraperitoneal (IP) injection.
Rats (n = 98, 300–330 g) received IP injections of GRASP (100 nmol/kg), Ondansetron (2 mg/kg), both GRASP and Ondansetron together, or saline control […] before systemic administration of cisplatin. Six hours later, rats received a second injection of GRASP or vehicle control. Food and kaolin intake were measured at 3, 6, and 24 h postinjection.
All data were expressed as means ± SEM.

GFRAL ECD (Homo sapiens) = GFRAL ECD (Homo sapiens) (UniProt Q6UXV0); conditions: cited from earlier work
[1] = molecular target: T1, Recombinant His-tagged human GFRAL (Ser19–Glu351) (human, UniProt Q6UXV0 19-351); experiment: SPR; biotin-GRASP immobilised on a streptavidin-coated biotin sensor (Nicoya OpenSPR); GFRAL-ECD (20, 100, 200, 600 nM), GDF15 (1 uM) or RET (0.29 uM) as analyte; HBSS pH 7.4; 1:1 fit with local Bmax (TraceDrawer); conditions: both partners purified
T1 construct: GDNF family receptor alpha-like (GFRAL), human, extracellular domain S19-E351 as defined by UniProt Q6UXV0; also called GFRAL–ECD; GFRAL (S19–E351); source: bought: ACRO Biosystems (GFA-H52H3), expressed in HEK293 cells
T1 sequence (looked up): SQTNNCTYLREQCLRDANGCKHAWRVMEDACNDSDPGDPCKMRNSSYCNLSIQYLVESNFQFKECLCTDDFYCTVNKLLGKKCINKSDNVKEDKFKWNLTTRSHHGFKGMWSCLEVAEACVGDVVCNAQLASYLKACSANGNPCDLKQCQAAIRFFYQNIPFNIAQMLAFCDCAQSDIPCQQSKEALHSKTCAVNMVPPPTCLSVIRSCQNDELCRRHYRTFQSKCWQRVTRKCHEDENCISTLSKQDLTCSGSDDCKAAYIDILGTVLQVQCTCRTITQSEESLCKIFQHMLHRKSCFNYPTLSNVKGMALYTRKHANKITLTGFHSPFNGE

[2] = molecular target: T2, Full-length human GFRAL on stably transfected HEK293 cells (human, UniProt Q6UXV0 19-394); experiment: flow cytometry on cells; GRASPCy5 (0.1-1000 nM) in HBSS pH 7.4, 30 min at 37 °C, on HEK293 cells stably overexpressing full-length human GFRAL; untransfected HEK293 cells as control; conditions: one partner purified
T2 construct: GDNF family receptor alpha-like (GFRAL), human, full-length, overexpressed on HEK293 cells; also called GFRAL–HEK293 cells; GFRAL-expressing HEK293 cells; source: HEK293 cells stably overexpressing human GFRAL, bought: Creative Biogene (CSC-SC006226)
T2 sequence (looked up): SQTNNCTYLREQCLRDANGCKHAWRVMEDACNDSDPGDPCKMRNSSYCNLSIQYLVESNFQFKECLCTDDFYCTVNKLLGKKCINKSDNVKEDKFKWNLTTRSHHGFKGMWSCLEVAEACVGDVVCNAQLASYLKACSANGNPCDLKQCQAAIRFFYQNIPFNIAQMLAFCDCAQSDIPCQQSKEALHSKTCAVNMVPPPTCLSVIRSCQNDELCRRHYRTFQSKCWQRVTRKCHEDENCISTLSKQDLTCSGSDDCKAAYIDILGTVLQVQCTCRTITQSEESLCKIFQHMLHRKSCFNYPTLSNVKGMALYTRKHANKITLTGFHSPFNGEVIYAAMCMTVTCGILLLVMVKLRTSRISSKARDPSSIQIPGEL

[3] = molecular target: T1, Recombinant His-tagged human GFRAL …; experiment: SPR; GFRAL (S19-E351) immobilised by amine coupling (EDC/NHS) on a high-capacity carboxyl sensor (Nicoya OpenSPR); peptides or GDF15 as analyte; HBSS pH 7.4 running buffer without BSA; 20 uL/min; conditions: both partners purified
[4] = GRASP 100 nmol/kg IP BID alone or with Ondansetron 2 mg/kg IP, no cisplatin
[5] = GRASP 100 nmol/kg IP BID, Ondansetron 2 mg/kg IP, cisplatin 6 mg/kg IP, n = 10–16 per group

CC[C@H](C)[C@H](NC(=O)[C@H](CC(C)C)NC(=O)[C@H](CCC(=O)O)NC(=O)[C@H](CCC(=O)O)NC(=O)[C@H](CCCCN=[N+]=[N-])NC(=O)[C@@H](N)[C@@H](C)O)C(=O)N[C@@H](Cc1c[nH]cn1)C(=O)N[C@@H](C)C(=O)N[C@@H](Cc1c[nH]cn1)C(=O)N[C@@H](C)C(=O)N[C@@H](CC(=O)O)C(=O)N1CCC[C@H]1C(=O)N[C@@H](CCSC)C(=O)N[C@H](C(=O)N[C@@H](CC(C)C)C(=O)N[C@H](C(=O)N[C@@H](CCC(N)=O)C(=O)N[C@@H](CCCCN)C(=O)N[C@H](C(=O)N[C@@H](CC(=O)O)C(=O)N[C@H](C(=O)NCC(=O)N[C@H](C(=O)N[C@@H](CO)C(=O)N[C@@H](CC(C)C)C(=O)N[C@@H](CCC(N)=O)C(=O)N[C@H](C(=O)N[C@@H](Cc1ccc(O)cc1)C(=O)N[C@@H](CC(=O)O)C(N)=O)[C@@H](C)O)C(C)C)[C@@H](C)O)[C@@H](C)O)[C@@H](C)CC)C(C)C [GRASP] (H-T[Lys(N3)]EELIHAHADPMVLIQKTDTGVSLQTYD-NH2)
impact on food or kaolin intake in healthy rats (Sprague–Dawley rats; [4]): had no impact on food or kaolin intake in healthy rats | tolerability in healthy rats (Sprague–Dawley rats; [4]): well-tolerated

GDF15 (from UniProt Q99988)
Kd (GFRAL ECD (Homo sapiens)): 1 nM

Cc1nccn1CC1CCc2c(c3ccccc3n2C)C1=O (centres unmarked) [Ondansetron]
effect on cisplatin-induced anorexia (Sprague–Dawley rats; [5]): Neither Ond (2 mg/kg of IP) nor GRASP (100 nmol/kg of IP [BID]) alone had any impact | effect on cisplatin-induced kaolin intake (Sprague–Dawley rats; [5]): significantly reduced cisplatin-induced kaolin intake

B1: Biotinylated GRASP (peptide)
peptide: T[K‑azido](PEG2‑C4‑alkyne‑biotin)EELIHAHADPMVLIQKTDTGVSLQTYD
notes: GRASP peptide as m1, biotin on the azido-lysine at position 2; Held on the sensor through biotin-streptavidin (His-tagged streptavidin on a biotin sensor); also called biotin-conjugated GRASP; biotin-GRASP; source: synthetic peptide, conjugated to PEG2-C4-alkyne biotin, RP-HPLC purified (95%)
Kd [1]: 74.1 nM

B2: GRASPCy5 (peptide)
peptide: TKEELIHAHADPMVLIQKTDTGVSLQTYD
modifications: not fully specified (residue 2); printed as T(K-azido)EELIHAHADPMVLIQKTDTGVSLQTYD
notes: GRASP peptide as m1, sulfo-Cy5 on the azido-lysine at position 2; also called sulfo-Cy5 GRASP conjugate; GRASP(K2)–fluorophore conjugate; source: synthetic peptide, conjugated to DBCO-Cy5, RP-HPLC purified (95%)
Kd [2]: 8.98 nM

B3: GRASP (K2-azido-modified 29-amino acid peptide) (peptide)
peptide: T[K‑azido]EELIHAHADPMVLIQKTDTGVSLQTYD
notes: designed peptide with GDF15-like loop regions; printed as T(K-azido)[residues removed]; In-house synthesis was on a Rink amide resin, which would give a C-terminal amide; also called GFRAL receptor antagonist; unlabeled GRASP; source: synthetic peptide (Genscript or in-house solid-phase synthesis), HPLC purified to >95%
Kd [3]: 179000 nM
